Where two headings read alike, the source gives them in different places.
Assays:
Format in all cases: cell-based
HIV-1IIIB = test: Syncytium inhibition experiment, C8166 cells infected with HIV-1IIIB; conditions: Human immunodeficiency virus 1, 72 h; HIV-1IIIB (MOI=0.04) in C8166 cells, syncytium count, three days
Method: (§1) C8166 cells infected with HIV-1 were used for determining the anti-HIV biological activity at the cellular level. The specific method was described below.
Syncytium inhibition experiment: 100 μL of C8166 cell suspension (4×10^5/mL) was seeded into each well of 96-well cell culture plates containing 5-fold serial dilutions of the compounds, followed by addition of HIV-1IIIB diluted supernatant (MOI=0.04). Triplicate wells were set for each serial concentration. […] The cells were cultured at 37° C. in a 5% CO2 incubator for three days. The number of the syncytia was counted in five non-overlapping fields of view by using an inverted microscope (100×).

C8166 cells = test: Cytotoxicity experiment (MTT method) on C8166 cells
Method: as §1
(§2) Cytotoxicity experiment: The toxicity of the compounds on C8166 cells was determined by MTT method. In 96-well cell culture plates, the compounds were subjected to 5-fold serial dilution and 100 μL of C8166 cell suspension (4×10^5/mL) was added into each well. Triplicate wells were set for each concentration. […] The cells were incubated at 37° C. in a 5% CO2 incubator for three days, followed by the addition of MTT solution into each well, and then the cells were incubated at 37° C. for 4 hours. 10% SDS-50% DMF was added into each well and the cells were incubated at 37° C. in a 5% CO2 incubator overnight. After mixing evenly, the OD values were measured by BIO-TEK ELx800 ELISA instrument (determination wavelength: 570 nm; reference wavelength: 630 nm).

[1] = as above; conditions: human
Method: as §1, §2

Row | EC50 (HIV-1IIIB) [nM] | Compound | CC50 (C8166 cells; C8166 cells, MTT, three days, read-out: CC50) [nM] | CC50 at 3 days ([1]; C8166 cells in vitro, read-out: CC50 values on C8166 cells) [nM] | CC50 (C8166 cells; human, 3 days) [nM] | CC50 at 3 days [1] [nM]
1 | 12 | COc1ccc(-c2cc(CSc3nc(CC4CCCCC4)c(C(C)C)c(=O)[nH]3)n[nH]2)cc1 [Compound I-40] |  |  | > 200000 | > 200000
2 | 837 | CCc1c(Cc2ccccc2)nc(SCc2cc(-c3ccc(F)cc3)[nH]n2)[nH]c1=O [Compound I-49] |  |  | > 200000 | > 200000
3 | 97 | CCc1c(Cc2cc(F)cc(F)c2)nc(SCc2cc(-c3ccc(F)cc3)[nH]n2)[nH]c1=O [Compound I-52] |  |  | > 200000 | > 200000
4 | 141 | CCc1c(Cc2ccccc2)nc(SCc2n[nH]c(-c3ccc(F)c(F)c3)c2Cl)[nH]c1=O [Compound I-53] |  |  | > 200000 | > 200000
5 | 700 | CCc1c(Cc2c(Cl)cccc2Cl)nc(SCc2n[nH]c(-c3ccc(F)c(F)c3)c2Cl)[nH]c1=O [Compound I-55] |  |  | > 200000 | > 200000
6 | 55 | CCc1c(Cc2cc(F)cc(F)c2)nc(SCc2n[nH]c(-c3ccccc3)c2Cl)[nH]c1=O [Compound I-69] |  |  |  | > 200000
7 | 92 | CCc1c(Cc2c(Cl)cccc2Cl)nc(SCc2n[nH]c(-c3ccccc3)c2Cl)[nH]c1=O [Compound I-70] |  |  |  | > 200000
8 | 51 | CCc1c(Cc2ccccc2)nc(SCc2n[nH]c(-c3ccccc3)c2Cl)[nH]c1=O [Compound I-71] |  |  |  | > 200000
9 | 81 | CCc1c(Cc2ccc3c(c2)OCO3)nc(SCc2n[nH]c(-c3ccccc3)c2Cl)[nH]c1=O [Compound I-72] |  |  |  | > 200000

Row | Compound | EC50 (HIV-1IIIB) [nM] | CC50 (C8166 cells; C8166 cells, MTT, three days, read-out: CC50) [nM] | CC50 at 3 days ([1]; C8166 cells in vitro, read-out: CC50 values on C8166 cells) [nM] | CC50 (C8166 cells; human, 3 days) [nM] | CC50 at 3 days [1] [nM]
10 | CCc1c(CC2CCCCC2)nc(SCc2n[nH]c(-c3ccc(Cl)c(Cl)c3)c2Cl)[nH]c1=O [Compound I-13] | 349 | > 200000 | > 200000 |  | 
